Data reported in patent publication US20240002429A1, “PRODRUG OF 5a-HYDROXY-6ß-[2-(1H-IMIDAZOL-4-YL)ETHYLAMINO]CHOLESTAN-3ß-OL AND PHARMACEUTICAL COMPOSITIONS COMPRISING SAME FOR USE IN THE TREATMENT OF CANCER” (priority 2020, published 2024).
Where two headings read alike, the source gives them in different places.

Experiments:
Neuro2a cells = assay: Cytotoxicity on Neuro2a cells, trypan blue assay; assay type: cell-based, murine; settings: 48 h; for percentage of live cells compared to the control group: 100 nM
Experimental: For this experiment, a cell culture medium was prepared. The culture medium consists of a Dulbecco's Modified Eagle Medium (DMEM) marketed by Westburg under the reference LO BE12-604F), comprising 4.5 g/L glucose with L-glutamine, to which 10% of fetal calf serum (FCS) is added. Neuro2a cells (murine neuroblastoma) were introduced into this culture medium.
24-well plates were seeded with 10000 Neuro2a cells per well. After culture for 72 hours (h) in normal conditions, i.e. in an incubator at a temperature of 37° C. at 5% CO2, the Neuro2a cells were treated for 48 h with 5α-hydroxy-6β-[2-(1H-imidazol-4-yl)-ethylamino]-cholestan-3β-yl-propionate and 5α-hydroxy-6β-[2-(1H-imidazol-4-yl)-ethylamino]-cholestan-3β-ol at 100 nM, 1 μM and 10 μM. A control (CTL) is also carried out using the protocol described above but without treatment with the aforementioned compounds. Cell survival is quantified by a trypan blue assay with automatic counting with the Biorad TC20 apparatus (TC20™ Automated Cell Counter). The trypan blue assay is based on the integrity of the cell membrane, which is broken in dead cells. The trypan blue stains the dead cells blue. The Biorad TC20 cell counter counts the proportions of blue cells and non-blue cells, relative to the cell percentages.

[1] = test system: BT-474 human mammary tumor cells; assay: Cytotoxicity on BT-474 cells, LDH; assay type: cell-based; settings: BT-474, LDH, 48 h; for Mean LogIC50 (±SEM): log of IC50 in μM; for IC50: Homo sapiens, read-out: IC50
Experimental: For the second method, the percentage viability is determined using assay of the activity of the enzyme LDH (lactate dehydrogenase) in the cellular supernatants using the kit non radioactive cytotoxicity assay kit (Promega). LDH is an enzyme released in the supernatant of dead cells. The higher the LDH activity in the supernatant, the greater is the cell death. In this enzyme test, the LDH released converts a violet tetrazolium salt to formazan, of red color, absorbing at 490 nm. The intensity of the red color is proportional to the number of dead cells. After 48 h of treatment, the supernatants are transferred to a new 96-well plate and are incubated for 30 minutes in the presence of the substrate mix at room temperature. The reaction is stopped using the stop buffer and the absorbance is determined at 490 nm. The percentage cell death is determined here using a control 100% of maximum activity of LDH (carried out with untreated cells incubated in the presence of the lysis solution for 45 minutes at 37° C. just before adding the substrate mix), and the cellular viability in each well is then deduced from this percentage. IC50 is then determined as explained in the preceding paragraph.
The cellular viability tests were also carried out on BT-474 human mammary tumor cells (characterized as being positive triples HER2+, ER+, PR+). The BT-474 cells are in a cell culture medium identical to the preceding example and are seeded in 24-well plates at 70 000 cells per well, for determination of cellular viability using trypan blue, or in 96-well plates at 13 000 cells per well for determination of cellular viability using the MTT or LDH assay. After 96 hours (h) of culture in normal conditions, i.e. in an incubator at a temperature of 37° C. at 5% CO2, the BT-474 cells are treated for 48 h with DX101, DX107, and DX113 at 100 nM, 1 μM, 2.5 μM and 10 μM. A control is also carried out using the protocol described above but without treatment with the molecules DX101, DX107, DX113, DX117, DX119, DX121 or DX131.
After trypsin digestion for 10 minutes at 37° C., cell survival was quantified, also by a trypan blue assay with automatic counting with the Biorad TC20 equipment (TC20™ Automated Cell Counter). The trypan blue assay is based on the cell membrane integrity, which is broken in the dead cells. Trypan blue stains the dead cells blue. The Biorad TC20 cell counter counts the proportion of blue cells and non-blue cells, relative to the cell percentages. The percentage viability is then determined in each well relative to the untreated cells and the IC50 is determined as explained in the preceding example. The percentage viability of the BT-474 cells was determined using the MTT and LDH assay, carried out as described in the preceding example.

4T1 cells = assay: Cytotoxicity on 4T1 cells, CellTox Green Cytotoxicity Assay; assay type: cell-based, murine; settings: Mus musculus, 4T1, Green Cytotoxicity Assay, 48 h
Experimental: The cellular viability tests were carried out on murine mammary tumor 4T1 cells characterized as negative triples (HER2−, ER−, PR−).
For this experiment, a cell culture medium was prepared. The culture medium consists of Dulbecco's Modified Eagle Medium (DMEM, marketed by Westburg under the reference LO BE12-604F), comprising 4.5 g/L glucose with L-glutamine, to which 10% of fetal calf serum (FCS) and 50 U/mL of penicillin/streptomycin are added. The 4T1 cells are introduced into this culture medium.
96-well plates were seeded with 2000 4T1 cells per well. After 72 hours (h) of culture in normal conditions, i.e. in an incubator at a temperature of 37° C. at 5% CO2, the 4T1 cells are treated for 48 h with DX101, DX107, DX113, DX117, DX119, DX121 or DX131 at 100 nM, 1 μM, 2.5 μM and 10 μM. A control condition (CTL) is also carried out in parallel using the protocol described above but without treatment with the molecules DX101, DX107, DX113, DX117, DX119, DX121, DX131 or DX133.
For the third method, the percentage viability is determined using the kit CellTox Green Cytotoxicity Assay (Promega). This assay measures cell death via a change in membrane integrity. […] As a result, the higher the fluorescence in the wells, the greater is the cell death. After 48 h of treatment, the cells are incubated for a minimum of 15 minutes in the presence of the Celltox green reagent at room temperature and the fluorescence is read at […]. The percentage cell death is determined using the control 100% of cell death (carried out for untreated cells incubated in the presence of the lysis solution for 30 minutes at 37° C. before adding the Celltox green reagent), and the cellular viability in each well is then deduced from this percentage. IC50 is then determined as explained above.

[2] = log of IC50 in μM, read-out: Mean LogIC50 (±SEM) (converted)

| SMILES | percentage of live cells compared to the control group (Neuro2a cells) | percentage cell survival relative to the control group (Neuro2a cells; 1 μM) [%] | percentage cell survival relative to the control group (Neuro2a cells; 10 μM) [%] | Mean LogIC50 (±SEM) [1] | IC50 [1] [µM] | IC50 (4T1 cells; [2]) [µM] | IC50 (4T1 cells; read-out: IC50) [µM] |
| --- | --- | --- | --- | --- | --- | --- | --- |
| CC(C)CCC[C@@H](C)[C@H]1CC[C@H]2[C@@H]3C[C@@H](NCCc4c[nH]cn4)[C@@]4(O)C[C@@H](O)CC[C@]4(C)[C@H]3CC[C@]12C [DX101, 5α-hydroxy-6β-[2-(1H-imidazol-4-yl)-ethylamino]-cholestan-3β-ol, reference compound] | unchanged | 85.42±4.73 | 43.25 | 0.99 ± 0.06 | 9.72 | 3.55 | 3.55 |
| CCC(=O)O[C@H]1CC[C@]2(C)[C@H]3CC[C@]4(C)[C@@H]([C@H](C)CCCC(C)C)CC[C@H]4[C@@H]3C[C@@H](NCCc3c[nH]cn3)[C@@]2(O)C1 [DX107, 5α-hydroxy-6β-[2-(1H-imidazol-4-yl)ethylamino]cholestan-3β-yl propionate] | unchanged | 84.08±4.09 | 30.46±5.22 | 0.95 ± 0.08 | 8.92 | 2.34 | 2.33 |
